According to patent US20220081421A1, “ANTIBACTERIAL COMPOUNDS” (Forge Therapeutics, Inc., priority 2018, published 2022):
In brackets after ≈: the same amount, converted by molar mass.

Legend:
E. coli = assay: MIC by broth microdilution (CLSI), E. coli; type: cell-based; settings: broth microdilution, cation adjusted Mueller-Hinton Broth, 35° C., 18-24 h; for MIC: Escherichia coli, read-out: E. coli MIC
Description: (§1) Minimal inhibitory concentrations (MIC) were determined by the broth microdilution method in accordance with the Clinical and Laboratory Standards Institute (CLSI) guidelines. In brief, organism suspensions were adjusted to a 0.5 McFarland standard to yield a final inoculum between 3×10^5 and 7×10^5 colony-forming units (CFU)/mL. Drug dilutions and inocula were made in sterile, cation adjusted Mueller-Hinton Broth (Beckton Dickinson). An inoculum volume of 100 μL was added to wells containing 100 μL of broth with 2-fold serial dilutions of drug. All inoculated microdilution trays were incubated in ambient air at 35° C. for 18-24 h. Following incubation, the lowest concentration of the drug that prevented visible growth (OD600 nm<0.05) was recorded as the MIC. Performance of the assay was monitored by the use of laboratory quality-control strains and levofloxacin, a compound with a defined MIC spectrum, in accordance with CLSI guidelines.

K. pneumoniae = assay: MIC by broth microdilution (CLSI), K. pneumoniae; type: cell-based; settings: broth microdilution, cation adjusted Mueller-Hinton Broth, 35° C., 18-24 h; for MIC: Klebsiella pneumoniae, read-out: K. pneumoniae MIC
Description: as §1

Structure (SMILES) | MIC (E. coli) [µg/mL] | MIC (K. pneumoniae) [µg/mL] | E. coli MIC (E. coli) | K. pneumoniae MIC (K. pneumoniae)
O=C(OC1CCSC1)C(Cc1ccc(C#Cc2ccc(CN3CCOCC3)cc2)cc1)c1nc[nH]c(=O)c1O (stereo not drawn) [Compound 115, tetrahydrothiophen-3-yl 2-(5-hydroxy-6-oxo-1,6-dihydropyrimidin-4-yl)-3-(4-((4-(morpholinomethyl)phenyl)ethynyl)phenyl)propanoate] | 8 to 32 (≈ 14.7 to 58.6 µM) | > 32 | – | –
CC(=O)NCC(Cc1ccc(C#CC#CC2CC2)c(F)c1)c1nc[nH]c(=O)c1O (stereo not drawn) [Compound 64, N-(3-(4-(cyclopropylbuta-1,3-diyn-1-yl)-3-fluorophenyl)-2-(5-hydroxy-6-oxo-1,6-dihydropyrimidin-4-yl)propyl)acetamide] | 1 to 8 (≈ 2.54 to 20.3 µM) | 1 to 8 (≈ 2.54 to 20.3 µM) | – | –
O=c1[nH]cnc(CCc2ccc(C#Cc3ccc(CNC4CC(O)C4)cc3)cn2)c1O (stereo not drawn) [Compound 15, 5-hydroxy-6-(2-(5-((4-(((3-hydroxycyclobutyl)amino)methyl)phenyl)ethynyl)pyridin-2-yl)ethyl)pyrimidin-4(3H)-one] | 8 to 32 (≈ 19.2 to 76.8 µM) | > 32 | – | –
OCC(Cc1nncc(O)c1O)c1ccc(C#Cc2ccc(CN[C@H]3CCOC3)cc2)cc1 (single isomer, unassigned) [Compound 101] | – | – | B (B: >1 μg/mL to ≤8.0 μg/mL) | B (B: >1 μg/mL to ≤8.0 μg/mL)
COC(=O)NCC(Cc1ccc(C#Cc2ccc(CN3CCOCC3)cc2)cn1)c1nc[nH]c(=O)c1O (stereo not drawn) [Compound 29, methyl (2-(5-hydroxy-6-oxo-1,6-dihydropyrimidin-4-yl)-3-(5-((4-(morpholinomethyl)phenyl)ethynyl)pyridin-2-yl)propyl)carbamate] | > 32 | > 32 | – | –
O=c1[nH]cnc(CNc2ccc(C#Cc3ccc(CN4CCOCC4)cc3)cc2)c1O [Compound 108, 5-hydroxy-6-(((4-((4-(morpholinomethyl)phenyl)ethynyl)phenyl)amino)methyl) pyrimidin-4(3H)-one] | 1 to 8 (≈ 2.4 to 19.2 µM) | > 32 | – | –
O=c1[nH]cnc(CCc2ccc(C#Cc3ncccn3)cc2)c1O [Compound 14, 5-hydroxy-6-(4-(pyrimidin-2-ylethynyl)phenethyl) pyrimidin-4(3H)-one] | 8 to 32 (≈ 25.1 to 101 µM) | > 32 | – | –
C=CCNCC(Cc1ccc(C#CC#Cc2cn[nH]c2)cc1)c1nc[nH]c(=O)c1O (stereo not drawn) [Compound 67, 6-(1-(4-((1H-pyrazol-4-yl)buta-1,3-diyn-1-yl)phenyl)-3-(allylamino)propan-2-yl)-5-hydroxypyrimidin-4(3H)-one] | 8 to 32 (≈ 20 to 80.1 µM) | > 32 | – | –

Other lines, results leading:

MIC (E. coli) [µg/mL] | MIC (K. pneumoniae) [µg/mL] | E. coli MIC (E. coli) | K. pneumoniae MIC (K. pneumoniae) | Structure (SMILES)
1 to 8 (≈ 2.19 to 17.5 µM) | 1 to 8 (≈ 2.19 to 17.5 µM) | – | – | O=C(NCCO)c1ccc(C#CC#Cc2ccc(CC(CO)c3nc[nH]c(=O)c3O)cc2)cc1 (stereo not drawn) [Compound 32, 4-((4-(3-hydroxy-2-(5-hydroxy-6-oxo-1,6-dihydropyrimidin-4-yl)propyl)phenyl)buta-1,3-diyn-1-yl)-N-(2-hydroxyethyl)benzamide]
1 to 8 (≈ 2.33 to 18.6 µM) | 1 to 8 (≈ 2.33 to 18.6 µM) | – | – | O=C(NCC(F)F)C(Cc1ccc(C#CC#CC2CC2)c(F)c1)c1nc[nH]c(=O)c1O (stereo not drawn) [Compound 61, 3-(4-(cyclopropylbuta-1,3-diyn-1-yl)-3-fluorophenyl)-N-(2,2-difluoroethyl)-2-(5-hydroxy-6-oxo-1,6-dihydropyrimidin-4-yl)propanamide]
8 to 32 (≈ 16.4 to 65.8 µM) | > 32 | – | – | CO/N=C(\C)C(Cc1ccc(C#Cc2ccc(CN3CCOCC3)cc2)cc1)c1ncnc(O)c1O (stereo not drawn) [Compound 116, (E)-3-(5,6-dihydroxypyrimidin-4-yl)-4-(4-((4-(morpholinomethyl)phenyl)ethynyl)phenyl)butan-2-one O-methyl oxime]
8 to 32 (≈ 16.8 to 67 µM) | > 32 | – | – | O=C(NCCc1nc[nH]c(=O)c1O)n1cc(C#Cc2ccc(CN3CCOCC3)cc2)cc1CO [Compound 79, N-(2-(5-hydroxy-6-oxo-1,6-dihydropyrimidin-4-yl)ethyl)-2-(hydroxymethyl)-4-((4-(morpholinomethyl)phenyl)ethynyl)-1H-pyrrole-1-carboxamide]
